Reference: publication PMC9656787, “Design, Synthesis and Biological Evaluation of Novel 1,3,5-Triazines: Effect of Aromatic Ring Decoration on Affinity to 5-HT7 Receptor” (International Journal of Molecular Sciences, 2022)
“And” between values parts separate entries of the source, which are not always exact repeats. Equal values may be shown once.

What was measured:
[1] = target: T1, 5-HT7 receptor (Homo sapiens, UniProt P34969); test: Radioligand binding assay, 5-HT7 receptor; details: for Ki: mean ± SD, triplicate at 7 concentrations, Cheng-Prusoff, read-out: Affinity Ki 5-HT7R; for activity with respect to 5-HT7R (in words): SAR discussion of radioligand data
T1 construct: host or cells: cell membranes from cultured cells
Experimental: (§1) The affinity of the studied compounds to 5-HT1A, 5-HT2A, 5-HT6, 5-HT7, and D2 receptors was evaluated by a radioligand assay, as reported previously (Table 1). Each compound was tested in triplicate at seven concentrations (from 0.1 nM to 100 µM). Inhibition constants (Ki) were calculated from the Cheng–Prusoff equation [23].
(§2) The cell culture, cell membranes, and radioligand binding assays were performed in accordance with standard protocols.

[2] = target: T2, 5-HT2A receptor (Homo sapiens, UniProt P28223); test: Radioligand binding assay, 5-HT2A receptor; details: mean ± SD, triplicate at 7 concentrations, Cheng-Prusoff; read-out: Affinity Ki 5-HT2AR
T2 construct: host or cells: cell membranes from cultured cells
Experimental: as §1, §2

[3] = target: T3, D2 receptor (Homo sapiens, UniProt P14416); test: Radioligand binding assay, D2 receptor; details: mean ± SD, triplicate at 7 concentrations, Cheng-Prusoff; read-out: Affinity Ki D2R
T3 construct: host or cells: cell membranes from cultured cells
Experimental: as §1, §2

[4] = target: T4, 5-HT6 receptor (Homo sapiens, UniProt P50406); test: Radioligand binding assay, 5-HT6 receptor; details: mean ± SD, triplicate at 7 concentrations, Cheng-Prusoff; read-out: Affinity Ki 5-HT6R
T4 construct: host or cells: cell membranes from cultured cells
Experimental: as §1, §2

[5] = target: T5, 5-HT1A receptor (Homo sapiens, UniProt P08908); test: Radioligand binding assay, 5-HT1A receptor; details: mean ± SD, triplicate at 7 concentrations, Cheng-Prusoff; read-out: Affinity Ki 5-HT1AR
T5 construct: host or cells: cell membranes from cultured cells
T5 sequence (P08908 1-422): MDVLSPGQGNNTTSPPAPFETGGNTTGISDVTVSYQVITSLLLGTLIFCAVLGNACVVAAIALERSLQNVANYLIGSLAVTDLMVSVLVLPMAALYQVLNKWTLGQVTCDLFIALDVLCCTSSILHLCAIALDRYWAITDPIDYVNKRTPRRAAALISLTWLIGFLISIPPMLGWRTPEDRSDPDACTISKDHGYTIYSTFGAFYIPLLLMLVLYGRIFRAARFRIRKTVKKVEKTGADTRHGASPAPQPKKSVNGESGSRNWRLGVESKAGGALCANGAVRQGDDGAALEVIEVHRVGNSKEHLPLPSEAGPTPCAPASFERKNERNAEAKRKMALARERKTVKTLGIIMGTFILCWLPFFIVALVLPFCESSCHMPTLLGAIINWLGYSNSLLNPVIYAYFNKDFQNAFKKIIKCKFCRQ
Experimental: as §1, §2

T1 sequence (P34969 1-432 limits assumed): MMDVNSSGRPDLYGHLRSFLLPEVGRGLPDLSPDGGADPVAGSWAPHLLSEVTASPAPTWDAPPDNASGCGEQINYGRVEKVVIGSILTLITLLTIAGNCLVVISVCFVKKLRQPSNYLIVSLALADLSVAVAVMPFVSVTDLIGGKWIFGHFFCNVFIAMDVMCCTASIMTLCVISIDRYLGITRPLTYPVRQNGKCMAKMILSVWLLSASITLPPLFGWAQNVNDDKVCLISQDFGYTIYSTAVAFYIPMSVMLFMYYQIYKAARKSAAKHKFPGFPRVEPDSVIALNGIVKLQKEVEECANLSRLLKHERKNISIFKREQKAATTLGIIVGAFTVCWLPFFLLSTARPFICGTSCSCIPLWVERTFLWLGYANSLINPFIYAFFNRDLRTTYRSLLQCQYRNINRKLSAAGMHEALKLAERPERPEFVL
T4 sequence (P50406 whole entry): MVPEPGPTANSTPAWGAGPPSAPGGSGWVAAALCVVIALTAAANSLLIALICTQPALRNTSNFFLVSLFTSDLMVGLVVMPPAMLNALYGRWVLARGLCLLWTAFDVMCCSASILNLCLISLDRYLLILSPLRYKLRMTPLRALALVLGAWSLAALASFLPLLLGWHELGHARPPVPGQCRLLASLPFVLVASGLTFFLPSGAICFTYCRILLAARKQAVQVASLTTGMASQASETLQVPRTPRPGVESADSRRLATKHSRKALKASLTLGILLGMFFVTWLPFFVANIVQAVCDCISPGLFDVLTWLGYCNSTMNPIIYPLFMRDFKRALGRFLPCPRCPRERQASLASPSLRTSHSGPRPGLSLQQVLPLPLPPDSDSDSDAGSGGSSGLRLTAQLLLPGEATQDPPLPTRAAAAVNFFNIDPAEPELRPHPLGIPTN
T3 sequence (P14416 whole entry): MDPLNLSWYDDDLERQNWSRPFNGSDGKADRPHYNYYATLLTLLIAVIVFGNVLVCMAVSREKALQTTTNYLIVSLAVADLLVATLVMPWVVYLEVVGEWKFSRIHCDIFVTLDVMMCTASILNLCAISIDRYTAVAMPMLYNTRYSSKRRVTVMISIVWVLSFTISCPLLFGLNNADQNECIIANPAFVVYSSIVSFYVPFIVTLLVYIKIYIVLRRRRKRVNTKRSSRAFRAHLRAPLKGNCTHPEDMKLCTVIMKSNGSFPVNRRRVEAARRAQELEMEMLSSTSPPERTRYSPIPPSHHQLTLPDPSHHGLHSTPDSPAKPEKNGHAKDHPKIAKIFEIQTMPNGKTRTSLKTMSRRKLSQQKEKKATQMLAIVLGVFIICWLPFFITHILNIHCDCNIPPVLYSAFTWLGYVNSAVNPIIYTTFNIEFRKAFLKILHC
T2 sequence (P28223 whole entry): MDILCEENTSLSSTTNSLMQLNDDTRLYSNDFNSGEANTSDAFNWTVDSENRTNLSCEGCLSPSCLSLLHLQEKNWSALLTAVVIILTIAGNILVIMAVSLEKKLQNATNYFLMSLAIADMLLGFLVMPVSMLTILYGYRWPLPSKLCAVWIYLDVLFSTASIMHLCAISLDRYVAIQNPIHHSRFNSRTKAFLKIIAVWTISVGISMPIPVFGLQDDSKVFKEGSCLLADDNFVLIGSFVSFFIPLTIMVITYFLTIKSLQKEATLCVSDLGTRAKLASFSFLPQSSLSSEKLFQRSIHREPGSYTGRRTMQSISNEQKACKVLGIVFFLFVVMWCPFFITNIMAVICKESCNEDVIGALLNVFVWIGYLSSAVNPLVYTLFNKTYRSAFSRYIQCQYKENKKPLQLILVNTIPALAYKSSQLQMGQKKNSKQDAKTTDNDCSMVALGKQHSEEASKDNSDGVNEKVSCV

SMILES	melting point [°C]	Ki [1]	Ki [4] [nM]	Ki [2] [nM]	Ki [3] [nM]	activity with respect to 5-HT7R (in words) [1]	Ki [5] [nM]
COc1ccc(Nc2nc(N)nc(NCCc3c[nH]c4ccccc34)n2)cc1.Cl [Compound 22, N^2-(2-(1H-Indol-3-yl)ethyl)-N^4-(4-Methoxyphenyl)-1,3,5-Triazine-2,4,6-Triamine Hydrochloride]	194 to 196	727 ± 107 nM	3740 ± 539	3110 ± 438	–	weakly active	79800
Cl.Nc1nc(NCCNc2ccc(Cl)cc2)nc(NCCc2c[nH]c3ccccc23)n1 [Compound 9, N^2-(2-(1H-Indol-3-yl)ethyl)-N^4-(2-((4-Chlorophenyl)amino)ethyl)-1,3,5-Triazine-2,4,6-Triamine Hydrochloride]	97 to 100	19 ± 4 nM	641 ± 84	2700 ± 581	–	active	16200
Cl.Nc1nc(NCCNc2ccccc2Cl)nc(NCCc2c[nH]c3ccccc23)n1 [Compound 7, N^2-(2-(1H-Indol-3-yl)ethyl)-N^4-(2-((2-Chlorophenyl)amino)ethyl)-1,3,5-Triazine-2,4,6-Triamine Hydrochloride]	105 to 108	423 ± 37 nM	892 ± 144	2120 ± 352	4290 ± 1030	moderately active	30800
Cl.Nc1nc(NCCc2c[nH]c3ccccc23)nc(Nc2cccc(Cl)c2)n1 [Compound 20, N^2-(2-(1H-Indol-3-yl)ethyl)-N^4-(3-Chlorophenyl)-1,3,5-Triazine-2,4,6-Triamine Hydrochloride]	174 to 178	1950 ± 261 nM	2230 ± 528	2690 ± 549	2270 ± 153	inactive	14100
Cl.Nc1nc(NCCc2c[nH]c3ccccc23)nc(Nc2ccc(F)cc2)n1 [Compound 21, N^2-(2-(1H-Indol-3-yl)ethyl)-N^4-(4-Fluorophenyl)-1,3,5-Triazine-2,4,6-Triamine Hydrochloride]	232 to 235	2050 ± 419 nM	1770 ± 243	884 ± 73	7030 ± 439	inactive	–
Cl.N#Cc1ccc2[nH]cc(CCNc3nc(N)nc(NCCc4ccccc4)n3)c2c1 [Compound 1, 3-(2-((4-Amino-6-(Phenethylamino)-1,3,5-Triazin-2-yl)Amino)Ethyl)-1H-Indole-5-Carbonitrile Hydrochloride]	95 to 98	2880 ± 351 nM	–	927 ± 927	–	activity toward the 5-HT7 receptor being lost	13000
Cc1ccc2[nH]cc(CCNc3nc(N)nc(NCCc4ccccc4)n3)c2c1.Cl [Compound 6, N^2-(2-(5-Methyl-1H-Indol-3-yl)ethyl)-N^4-Phenethyl-1,3,5-Triazine-2,4,6-Triamine Hydrochloride]	118 to 121	100 ± 15 nM	714 ± 112	835 ± 168	–	–	16600
COc1ccc2[nH]cc(CCNc3nc(N)nc(NCCc4ccccc4)n3)c2c1.Cl [Compound 5, N^2-(2-(5-Methoxy-1H-Indol-3-yl)ethyl)-N^4-Phenethyl-1,3,5-Triazine-2,4,6-Triamine Hydrochloride]	111 to 115	629 ± 148 nM	509 ± 33	883 ± 108	–	–	3130 ± 758
Cl.Nc1nc(NCCNc2cccc(F)c2)nc(NCCc2c[nH]c3ccccc23)n1 [Compound 11, N^2-(2-(1H-Indol-3-yl)ethyl)-N^4-(2-((3-Fluorophenyl)amino)ethyl)-1,3,5-Triazine-2,4,6-Triamine Hydrochloride]	74 to 79	24 ± 5 nM	979 ± 237	1280 ± 168	13800	active	34600
Cl.Nc1nc(NCCNc2cccc(Cl)c2)nc(NCCc2c[nH]c3ccccc23)n1 [Compound 8, N^2-(2-(1H-Indol-3-yl)ethyl)-N^4-(2-((3-Chlorophenyl)amino)ethyl)-1,3,5-Triazine-2,4,6-Triamine Hydrochloride]	77 to 82	131 ± 16 nM	4020 ± 719	1800 ± 264	1240 ± 257	moderately active	15600
Cl.Nc1nc(NCCc2ccccc2)nc(NCCc2c[nH]c3ccc(Br)cc23)n1 [Compound 3, N^2-(2-(5-Bromo-1H-Indol-3-yl)ethyl)-N^4-Phenethyl-1,3,5-Triazine-2,4,6-Triamine Hydrochloride]	82 to 85	126 ± 17 nM	234 ± 27	942 ± 112	–	–	11000
Cl.Nc1nc(NCCNc2ccccc2F)nc(NCCc2c[nH]c3ccccc23)n1 [Compound 10, N^2-(2-(1H-Indol-3-yl)ethyl)-N^4-(2-((2-Fluorophenyl)amino)ethyl)-1,3,5-Triazine-2,4,6-Triamine Hydrochloride]	94 to 97	132 ± 9 nM	982 ± 115	1510 ± 362	20400	moderately active	36500
Cl.Nc1nc(NCCc2ccccc2)nc(NCCc2c[nH]c3ccc(Cl)cc23)n1 [Compound 4, N^2-(2-(5-Chloro-1H-Indol-3-yl)ethyl)-N^4-Phenethyl-1,3,5-Triazine-2,4,6-Triamine Hydrochloride]	106 to 108	481 ± 23 nM	702 ± 48	559 ± 41	14500	–	3910 ± 581

Now from value to molecule, other results behind:

melting point [°C]	Ki [1]	Ki [4] [nM]	SMILES	Ki [2] [nM]	Ki [3] [nM]	activity with respect to 5-HT7R (in words) [1]	Ki [5] [nM]
150 to 153	756 ± 107 nM	–	COc1ccc(NCCNc2nc(N)nc(NCCc3c[nH]c4ccccc34)n2)cc1.Cl [Compound 15, N^2-(2-(1H-Indol-3-yl)ethyl)-N^4-(2-((4-Methoxyphenyl)amino)ethyl)-1,3,5-Triazine-2,4,6-Triamine Hydrochloride]	–	–	–	–
136 to 138	> 1000 nM and 21600 nM	8760 ± 1760	Cl.Nc1nc(NCCc2c[nH]c3ccccc23)nc(NCCN2C(=O)c3ccccc3C2=O)n1 [Compound 16, 2-(2-((4-((2-(1H-Indol-3-yl)ethyl)amino)-6-Amino-1,3,5-Triazin-2-yl)amino)ethyl)isoindoline-1,3-Dione Hydrochloride]	22400	13300	–	–
190 to 194	> 1000 nM and 4130 nM	1960 ± 269	Cc1nc2ccccc2n1CCNc1nc(N)nc(NCCc2c[nH]c3ccccc23)n1.Cl [Compound 18, N^2-(2-(1H-indol-3-yl)ethyl)-N^4-(2-(2-methyl-1H-benzo[d]imidazol-1-yl)ethyl)-1,3,5-triazine-2,4,6-triamine hydrochloride]	9350 ± 831	–	–	–
140 to 143	1040 ± 81 nM	2790 ± 342	COc1cccc(NCCNc2nc(N)nc(NCCc3c[nH]c4ccccc34)n2)c1.Cl [Compound 14, N^2-(2-(1H-Indol-3-yl)ethyl)-N^4-(2-((3-Methoxyphenyl)amino)ethyl)-1,3,5-Triazine-2,4,6-Triamine Hydrochloride]	2450 ± 273	36000	–	–
195 to 200	227 ± 37 nM	2630 ± 427	Cl.Nc1nc(NCCc2c[nH]c3ccccc23)nc(NCCn2cnc3ccccc32)n1 [Compound 17, N^2-(2-(1H-Benzo[d]imidazol-1-yl)ethyl)-N^4-(2-(1H-Indol-3-yl)ethyl)-1,3,5-Triazine-2,4,6-Triamine Hydrochloride]	11100	–	–	63000
108 to 110	> 1000 nM and 3460 nM	825 ± 72	Cl.Nc1nc(NCCc2c[nH]c3ccccc23)nc(NCCn2c(C(F)(F)F)nc3ccccc32)n1 [Compound 19, N^2-(2-(1H-Indol-3-yl)ethyl)-N^4-(2-(2-(Trifluoromethyl)-1H-Benzo[d]imidazol-1-yl)ethyl)-1,3,5-Triazine-2,4,6-Triamine Hydrochloride]	4030 ± 537	–	–	76200
